Here are results for 4 molecules from US20090192176A1, “1H-PYRAZOLO[3,4-D]PYRIMIDINE, PURINE, 7H-PURIN-8(9H)-ONE, 3H-[1,2,3]TRIAZOLO[4,5-D]PYRIMIDINE, AND THIENO[3,2-D]PYRIMIDINE COMPOUNDS, THEIR USE AS mTOR KINASE AND PI3 KINASE INHIBITORS, AND THEIR SYNTHESES” (Wyeth, priority 2008, published 2009).

What is called IC50 is the midpoint of a concentration-inhibition curve.

In experiment [1] the test system is acute lymphoblastic leukemia. Particulars: NOS/SCID xenograft mouse model of acute lymphoblastic leukemia; cited from earlier work.
Another experiment has as its system LNCap. The experiment can be described thus: In vitro cell culture growth assay (MTS). Format: cell-based. Particulars: Homo sapiens, 72 h, prostate line LNCap, three days after drug treatment.
For a further experiment, the system named is MDA468. The experiment can be described thus: In vitro cell culture growth assay (MTS). Format: cell-based. Conditions: Homo sapiens, 72 h, breast line MDA468, three days after drug treatment. As for the experimental part:
In Vitro Cell Culture Growth Assay Methods:
Human tumor cell lines used include prostate lines LNCap and PC3MM2, breast lines MDA468, MCF7, renal line HTB44 (A498), colon line HCT116, and ovarian line OVCAR3. Cells were plated in 96-well culture plates. One day following plating, the inhibitors were added to cells. Three days after drug treatment, viable cell densities were determined by metabolic conversion (by viable cells) of the dye MTS, a well-established cell proliferation assay. The assays were performed using an assay kit purchased from Promega Corp. (Madison, Wis.) following the protocol supplied with the kit. The MTS assay results were read in a 96-well plate reader by measuring absorbance at 490 nm. The effect of each treatment was calculated as percent of control growth relative to the vehicle-treated cells grown in the same culture plate. The drug concentration that conferred 50% inhibition of growth was determined as IC50 (μg/ml).

In another experiment the target is T1, Human mTOR (Homo sapiens, UniProt P42345).
T1 construct: FLAG
The experiment in a line: mTOR kinase assay (DELFIA format, purified enzyme). Format: biochemical. Particulars: His6-S6K substrate, read-out: TOR Kinase IC50.

Another experiment addresses PI3 Kinase α (Homo sapiens, UniProt P42336). The experiment can be described thus: Fluorescence polarization assay for PI3K. Format: biochemical. A general note: Polarisation of emitted light reports the rotation of a fluorescent probe.
Another experiment addresses PI3 Kinase γ (Homo sapiens, UniProt P48736). The experiment can be described thus: Fluorescence polarization assay for PI3K. Format: biochemical.

Molecules are shown by their SMILES. Some results are limits rather than exact numbers.

Chain of PI3 Kinase α (P42336 whole entry): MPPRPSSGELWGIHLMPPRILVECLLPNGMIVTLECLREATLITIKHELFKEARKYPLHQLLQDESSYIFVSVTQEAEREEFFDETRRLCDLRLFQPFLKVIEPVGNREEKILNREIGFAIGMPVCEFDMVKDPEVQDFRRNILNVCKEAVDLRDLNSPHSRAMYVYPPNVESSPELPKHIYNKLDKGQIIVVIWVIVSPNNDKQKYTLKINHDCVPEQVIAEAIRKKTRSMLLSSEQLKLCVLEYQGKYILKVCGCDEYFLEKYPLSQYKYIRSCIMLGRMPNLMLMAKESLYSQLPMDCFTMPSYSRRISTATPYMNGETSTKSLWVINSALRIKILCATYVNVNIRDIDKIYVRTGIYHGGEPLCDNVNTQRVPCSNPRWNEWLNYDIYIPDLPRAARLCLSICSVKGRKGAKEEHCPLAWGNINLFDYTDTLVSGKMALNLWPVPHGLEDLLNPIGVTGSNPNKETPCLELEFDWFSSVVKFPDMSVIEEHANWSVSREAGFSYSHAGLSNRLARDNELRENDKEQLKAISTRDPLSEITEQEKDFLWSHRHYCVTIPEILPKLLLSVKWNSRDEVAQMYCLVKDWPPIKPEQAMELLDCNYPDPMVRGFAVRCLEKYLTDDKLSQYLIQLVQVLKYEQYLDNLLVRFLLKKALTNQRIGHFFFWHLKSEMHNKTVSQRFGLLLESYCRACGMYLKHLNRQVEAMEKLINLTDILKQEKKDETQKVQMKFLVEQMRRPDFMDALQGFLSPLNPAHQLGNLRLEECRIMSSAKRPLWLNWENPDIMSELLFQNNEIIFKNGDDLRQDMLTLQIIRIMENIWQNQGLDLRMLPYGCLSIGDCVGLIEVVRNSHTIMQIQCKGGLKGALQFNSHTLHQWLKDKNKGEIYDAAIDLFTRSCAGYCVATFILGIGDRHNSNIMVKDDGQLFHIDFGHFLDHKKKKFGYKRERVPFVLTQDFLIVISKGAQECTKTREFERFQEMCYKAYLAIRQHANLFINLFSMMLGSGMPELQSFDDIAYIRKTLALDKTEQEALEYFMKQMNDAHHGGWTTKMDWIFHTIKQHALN
Chain of PI3 Kinase α (P27986 whole entry partner): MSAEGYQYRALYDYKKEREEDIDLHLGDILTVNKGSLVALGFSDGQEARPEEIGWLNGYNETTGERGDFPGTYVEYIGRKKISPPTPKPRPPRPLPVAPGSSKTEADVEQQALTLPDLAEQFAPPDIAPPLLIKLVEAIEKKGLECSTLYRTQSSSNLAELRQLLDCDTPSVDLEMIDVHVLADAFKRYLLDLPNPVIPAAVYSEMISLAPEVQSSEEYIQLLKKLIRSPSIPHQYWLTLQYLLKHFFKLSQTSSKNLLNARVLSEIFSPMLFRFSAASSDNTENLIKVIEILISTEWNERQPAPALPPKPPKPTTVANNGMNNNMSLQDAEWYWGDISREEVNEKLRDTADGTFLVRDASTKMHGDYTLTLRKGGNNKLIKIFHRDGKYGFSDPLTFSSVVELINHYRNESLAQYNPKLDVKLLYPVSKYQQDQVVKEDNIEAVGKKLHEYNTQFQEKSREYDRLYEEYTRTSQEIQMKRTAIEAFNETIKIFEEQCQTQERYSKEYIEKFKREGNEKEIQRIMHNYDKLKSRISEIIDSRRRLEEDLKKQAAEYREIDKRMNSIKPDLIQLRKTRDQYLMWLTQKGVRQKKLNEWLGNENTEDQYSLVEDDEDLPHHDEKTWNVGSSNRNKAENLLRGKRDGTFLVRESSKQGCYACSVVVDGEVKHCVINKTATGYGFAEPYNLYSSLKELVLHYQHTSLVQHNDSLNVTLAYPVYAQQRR
Chain of PI3 Kinase γ (P48736 whole entry): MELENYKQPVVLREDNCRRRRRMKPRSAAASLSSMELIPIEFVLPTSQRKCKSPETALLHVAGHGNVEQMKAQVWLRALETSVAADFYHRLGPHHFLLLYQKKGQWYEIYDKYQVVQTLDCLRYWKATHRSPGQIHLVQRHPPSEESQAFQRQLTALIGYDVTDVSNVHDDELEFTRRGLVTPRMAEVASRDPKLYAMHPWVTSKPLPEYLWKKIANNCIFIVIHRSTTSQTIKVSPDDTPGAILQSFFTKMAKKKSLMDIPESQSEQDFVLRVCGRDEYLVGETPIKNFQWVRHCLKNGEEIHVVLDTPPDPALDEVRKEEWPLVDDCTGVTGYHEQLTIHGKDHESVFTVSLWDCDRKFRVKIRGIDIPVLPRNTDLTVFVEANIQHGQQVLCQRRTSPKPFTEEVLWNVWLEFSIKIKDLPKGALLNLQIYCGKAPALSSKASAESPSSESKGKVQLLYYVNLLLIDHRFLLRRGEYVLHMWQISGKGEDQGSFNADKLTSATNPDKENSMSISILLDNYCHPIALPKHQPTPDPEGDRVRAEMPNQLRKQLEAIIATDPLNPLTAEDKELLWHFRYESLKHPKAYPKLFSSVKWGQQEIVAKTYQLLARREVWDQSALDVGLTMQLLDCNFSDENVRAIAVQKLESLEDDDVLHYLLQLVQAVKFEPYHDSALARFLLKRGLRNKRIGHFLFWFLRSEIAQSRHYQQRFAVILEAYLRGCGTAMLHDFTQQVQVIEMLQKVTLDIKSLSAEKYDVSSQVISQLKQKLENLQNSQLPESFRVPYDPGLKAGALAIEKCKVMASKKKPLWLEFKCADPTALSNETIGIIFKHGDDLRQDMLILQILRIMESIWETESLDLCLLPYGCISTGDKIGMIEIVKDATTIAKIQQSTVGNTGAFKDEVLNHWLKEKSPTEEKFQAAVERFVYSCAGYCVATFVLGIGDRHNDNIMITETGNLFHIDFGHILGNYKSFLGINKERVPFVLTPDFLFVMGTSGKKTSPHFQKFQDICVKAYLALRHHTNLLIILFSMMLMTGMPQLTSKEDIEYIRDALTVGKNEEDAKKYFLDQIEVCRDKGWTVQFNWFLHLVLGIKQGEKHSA

For `CO[C@H]1C[C@@H]2CC[C@@H](C)[C@@](O)(O2)C(=O)C(=O)N2CCCC[C@H]2C(=O)O[C@H]([C@H](C)C[C@@H]2CC[C@@H](OC(=O)C(C)(CO)CO)[C@H](OC)C2)CC(=O)[C@H](C)/C=C(\C)[C@@H](O)[C@@H](OC)C(=O)[C@H](C)C[C@H](C)/C=C/C=C/C=C/1C` [Torisel], the “activity in xenograft model” value in experiment [1] is listed as “active”.
For `O=C(Nc1ccc(-c2nc(C3=CCOCC3)c3cnn(CC(F)(F)F)c3n2)cc1)Nc1cccnc1` [Compound 8, 1-{4-[4-(3,6-dihydro-2H-pyran-4-yl)-1-(2,2,2-trifluoroethyl)-1H-pyrazolo[3,4-d]pyrimidin-6-yl]phenyl}-3-pyridin-3-ylurea], the IC50 with LNCap was 380 nM; in the experiment with MDA468, 7000 nM; on Human mTOR it was 0.75 nM; against PI3 Kinase α, 66 nM; against PI3 Kinase γ it was over 10000 nM.
On to `Oc1cccc(-c2nc(C3=CCOCC3)c3cnn(-c4ccccc4)c3n2)c1` [Compound 1, 3-[4-(3,6-dihydro-2H-pyran-4-yl)-1-phenyl-1H-pyrazolo[3,4-d]pyrimidin-6-yl]phenol], for which the IC50 in the experiment with LNCap amounted to 2800 nM; in the experiment with MDA468, 8250 nM; at Human mTOR it was 17 nM; at PI3 Kinase α, 48 nM; against PI3 Kinase γ, 1890 nM.
Take `CCNC(=O)Nc1ccc(-c2nc(C3=CCOCC3)c3cnn(CC(F)(F)F)c3n2)cc1` [Compound 10, 1-{4-[4-(3,6-dihydro-2H-pyran-4-yl)-1-(2,2,2-trifluoroethyl)-1H-pyrazolo[3,4-d]pyrimidin-6-yl]phenyl}-3-ethylurea]: the IC50 in the experiment with LNCap was 210 nM; in the experiment on MDA468, 680 nM; at Human mTOR it was 2.4 nM; against PI3 Kinase α, 851 nM; on PI3 Kinase γ it was over 10000 nM.
